Read-outs that look alike come from different tables or passages of the source.
How the values were obtained:
[1] = system: rats with chronic spinal cord injury exhibiting allodynia; test: Intrathecal salicylate for pain: allodynia on light touch in rats with chronic spinal cord injury; type: in vivo, rat; conditions: intrathecal via ESOX pump, 60 μl per day; two rats; saline replaced by salicylate
Procedure: A 1-French silicon tubing was threaded into the intrathecal space from the atlanto-occipital membrane. The intrathecal catheter was connected an ESOX that was implanted subcutaneously. The ESOX pump flowed at a rate of 60 μl per day. Initially, saline was placed in the pumps. At testing on days 2, 12, 14 after pump placement, signs of allodynia were consistently observed when the animals were lightly touched at particular parts of their body (left flank for rat 1 and right shoulder for rat 2). Animals vocalized consistently when these areas were lightly touched. All of the behavioral testing was done by a person who was unaware of the type of drug delivered or the expected effects of the drug. The saline was removed from the pumps and the pumps were refilled with salicylate. […] When the salicylate was removed and replaced with saline, consistent allodynia was observed.

[2] = system: rats with spinal cord injury; test: BBB locomotor test after moderate to severe spinal cord injury; type: in vivo, rat; conditions: intrathecal via ESOX pump, 60 μl per day
Procedure: In this study, twenty-four rats deeply anesthetized rats received a moderate to severe spinal cord injury using a 2-French Fogarty embolectomy catheter. Shortly after injury, a 1-French silicon tubing was threaded into the intrathecal space from the atlanto-occipital membrane. The intrathecal catheter was connected an ESOX that was implanted subcutaneously. The ESOX pump flowed at a rate of 60 μl per day. Animals were randomly assigned to receive saline or salicylate. Animals were tested each week using the BBB locomotor test. All of the behavioral testing was done by a person who was unaware of the type of drug delivered or the expected effects of the drug. […] The average score for the saline treated rats was 0 while the average score for salicylate treated rats was 5.45.

Male Sprague-Dawley rats [3] = conditions: rat, in vivo
Male Sprague-Dawley rats [4] = conditions: rat, in vivo; remark: listed apart in the source
Male Sprague-Dawley rats [5] = conditions: rat, in vivo; remark: listed apart in the source

Row | Compound | allodynia (vocalization when lightly touched) [1] | functional deficits versus saline [2] | average BBB locomotor score ([2]; started shortly after injury) | duration of effects (Male Sprague-Dawley rats [3]) | onset of response to the bolus (Male Sprague-Dawley rats [3]) | tail flick latency response (Male Sprague-Dawley rats [3]) | colorectal distension visceromotor response threshold (Male Sprague-Dawley rats [4]) | duration of effects (Male Sprague-Dawley rats [4]) | onset of response to the bolus (Male Sprague-Dawley rats [4]) | effect on flinches/licks of the hindpaw (formalin test) (Male Sprague-Dawley rats [5])
1 | O=C(O)c1ccccc1O [salicylate] | no evidence of allodynia was observed | on average less functional deficits | 5.45 | – | – | – | – | – | – | –
2 | choline-magnesium trisalicylate [Choline-Mg-Salicylate] | – | – | – | not long-lasting | rapid in onset | dose-dependent | dose-dependent | not long-lasting | rapid in onset | produced an effect

From patent publication US8513281B1 (priority 1999, dated 2013)
